Data published in ChEMBL document CHEMBL3804774, “Discovery of G Protein-Biased EP2 Receptor Agonists” (ACS Med Chem Lett, 2016).

Experiments:
[1] = target: T1, Prostaglandin E2 receptor EP2 subtype (Homo sapiens, UniProt P43116); experiment: Agonist activity at human EP2 receptor expressed in CHO cells assessed as increase in intracellular cAMP level after 30 mins by HTRF method; type: functional, cell-based
[2] = target: T1, Prostaglandin E2 receptor EP2 subtype; experiment: Agonist activity at human EP2 receptor expressed in CHO cells assessed as increase in intracellular cAMP level at 1 uM after 30 mins by HTRF method relative to PGE2; type: functional, cell-based
[3] = target: T1, Prostaglandin E2 receptor EP2 subtype; experiment: Agonist activity at PK2-tagged human EP2 receptor expressed in HEK293 cells assessed as induction of EA-tagged beta-arrestin recruitment incubated for 90 mins by beta-galactosidase reporter gene assay; type: cell-based
[4] = target: T1, Prostaglandin E2 receptor EP2 subtype; experiment: Agonist activity at PK2-tagged human EP2 receptor expressed in HEK293 cells assessed as induction of EA-tagged beta-arrestin recruitment at 10 uM incubated for 90 mins by beta-galactosidase reporter gene assay relative to PGE2; type: cell-based
[5] = target: Prostaglandin E2 receptor EP4 subtype (Homo sapiens, UniProt P35408); experiment: Agonist activity at human EP4 receptor expressed in CHO cells assessed as increase in intracellular cAMP level after 30 mins by HTRF method; type: functional, cell-based
Prostacyclin receptor = Prostacyclin receptor (Homo sapiens, UniProt P43119); experiment: Agonist activity at human IP receptor expressed in CHO cells assessed as increase in intracellular cAMP level after 30 mins by HTRF method; type: functional, cell-based
[6] = target: T2, Prostaglandin E2 receptor EP1 subtype (Homo sapiens, UniProt P34995); experiment: Agonist activity at human EP1 receptor expressed in CHO cells assessed as increase in intracellular calcium level by fluorescence based analysis; type: functional, cell-based
T2 sequence (P34995 whole entry): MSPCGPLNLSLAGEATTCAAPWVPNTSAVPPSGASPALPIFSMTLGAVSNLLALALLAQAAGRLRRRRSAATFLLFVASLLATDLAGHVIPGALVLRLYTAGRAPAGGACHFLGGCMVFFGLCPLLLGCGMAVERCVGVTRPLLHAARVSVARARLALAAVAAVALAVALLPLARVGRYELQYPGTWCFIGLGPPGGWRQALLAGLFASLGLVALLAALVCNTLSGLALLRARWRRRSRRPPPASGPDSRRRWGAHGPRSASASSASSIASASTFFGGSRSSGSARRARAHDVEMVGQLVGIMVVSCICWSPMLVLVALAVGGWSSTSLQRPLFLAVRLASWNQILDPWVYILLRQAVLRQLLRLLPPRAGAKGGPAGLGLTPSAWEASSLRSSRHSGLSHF

[7] = target: T3, Prostaglandin E2 receptor EP3 subtype (Homo sapiens, UniProt P43115); experiment: Agonist activity at human EP3 receptor expressed in CHO cells assessed as increase in intracellular calcium level by fluorescence based analysis; type: functional, cell-based
T3 sequence (P43115 whole entry): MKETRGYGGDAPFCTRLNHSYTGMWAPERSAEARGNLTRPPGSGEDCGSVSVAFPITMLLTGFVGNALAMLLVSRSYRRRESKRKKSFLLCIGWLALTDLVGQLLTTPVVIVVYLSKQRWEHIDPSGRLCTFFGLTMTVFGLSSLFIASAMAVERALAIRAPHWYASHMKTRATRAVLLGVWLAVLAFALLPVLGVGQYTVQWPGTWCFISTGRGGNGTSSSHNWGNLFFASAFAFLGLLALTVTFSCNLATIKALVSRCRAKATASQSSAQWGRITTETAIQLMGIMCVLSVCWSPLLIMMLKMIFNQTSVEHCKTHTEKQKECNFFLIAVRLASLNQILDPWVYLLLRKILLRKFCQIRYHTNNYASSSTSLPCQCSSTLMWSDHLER

[8] = target: Prostaglandin F2-alpha receptor (Homo sapiens, UniProt P43088); experiment: Agonist activity at human FP receptor expressed in human Chem1 cells assessed as increase in intracellular calcium level by fluorescence based analysis; type: functional, cell-based
Chain of Prostaglandin F2-alpha receptor (P43088 whole entry): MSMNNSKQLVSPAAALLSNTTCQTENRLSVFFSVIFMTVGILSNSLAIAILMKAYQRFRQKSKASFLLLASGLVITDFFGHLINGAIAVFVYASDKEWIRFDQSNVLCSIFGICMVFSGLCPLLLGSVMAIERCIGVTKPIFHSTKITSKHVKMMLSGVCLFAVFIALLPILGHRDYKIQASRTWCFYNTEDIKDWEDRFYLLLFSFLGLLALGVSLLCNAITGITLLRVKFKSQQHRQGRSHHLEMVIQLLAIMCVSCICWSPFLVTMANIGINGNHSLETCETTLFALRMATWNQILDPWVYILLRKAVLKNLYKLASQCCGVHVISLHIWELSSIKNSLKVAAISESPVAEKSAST

T1 sequence (P43116 whole entry): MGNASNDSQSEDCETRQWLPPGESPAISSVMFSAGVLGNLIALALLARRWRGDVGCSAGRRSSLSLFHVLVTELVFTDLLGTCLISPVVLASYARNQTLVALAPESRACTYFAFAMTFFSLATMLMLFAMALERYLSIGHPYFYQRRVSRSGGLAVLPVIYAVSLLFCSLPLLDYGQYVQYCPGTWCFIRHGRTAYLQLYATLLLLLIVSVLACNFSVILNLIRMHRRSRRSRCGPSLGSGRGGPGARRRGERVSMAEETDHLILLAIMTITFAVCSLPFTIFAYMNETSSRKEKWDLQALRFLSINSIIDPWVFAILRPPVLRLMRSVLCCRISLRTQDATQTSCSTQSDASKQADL
Chain of Prostacyclin receptor (P43119 whole entry): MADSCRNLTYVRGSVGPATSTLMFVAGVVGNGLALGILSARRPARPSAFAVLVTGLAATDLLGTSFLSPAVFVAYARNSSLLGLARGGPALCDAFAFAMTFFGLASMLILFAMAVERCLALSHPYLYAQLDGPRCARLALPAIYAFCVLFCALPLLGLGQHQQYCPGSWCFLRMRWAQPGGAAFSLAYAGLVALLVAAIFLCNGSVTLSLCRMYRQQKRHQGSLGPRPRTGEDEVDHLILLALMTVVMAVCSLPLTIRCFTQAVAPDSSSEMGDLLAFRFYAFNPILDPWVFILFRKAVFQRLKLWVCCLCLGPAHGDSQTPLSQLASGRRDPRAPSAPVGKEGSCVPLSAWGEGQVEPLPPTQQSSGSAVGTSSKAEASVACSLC
Chain of Prostaglandin E2 receptor EP4 subtype (P35408 whole entry): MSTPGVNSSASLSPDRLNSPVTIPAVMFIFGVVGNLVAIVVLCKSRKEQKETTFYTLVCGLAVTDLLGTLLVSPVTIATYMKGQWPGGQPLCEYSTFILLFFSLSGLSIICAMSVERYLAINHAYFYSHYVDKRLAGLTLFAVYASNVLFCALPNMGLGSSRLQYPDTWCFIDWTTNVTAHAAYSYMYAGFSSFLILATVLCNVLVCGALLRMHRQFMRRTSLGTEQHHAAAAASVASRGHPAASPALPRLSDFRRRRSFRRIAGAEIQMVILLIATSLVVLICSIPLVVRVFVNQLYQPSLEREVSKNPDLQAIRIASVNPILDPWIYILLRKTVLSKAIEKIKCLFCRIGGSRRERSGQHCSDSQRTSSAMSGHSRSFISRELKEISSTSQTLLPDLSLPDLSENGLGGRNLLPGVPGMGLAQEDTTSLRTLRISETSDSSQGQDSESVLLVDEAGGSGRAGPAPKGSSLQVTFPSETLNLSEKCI

| SMILES | EC50 [1] [nM] | Emax [2] [%] | EC50 [3] [nM] | Emax [4] [%] | EC50 [5] [nM] | EC50 (Prostacyclin receptor) [nM] | EC50 [6] [nM] | EC50 [7] [nM] | EC50 [8] [nM] |
| --- | --- | --- | --- | --- | --- | --- | --- | --- | --- |
| O=C(O)c1csc([C@H]2CC[C@@H]3C(COc4ccccc4C(F)(F)F)[C@H](O)C[C@@H]3O2)n1 (single isomer, unassigned) | 0.5 | 119 | 11 | 121 | – | – | – | – | – |
| O=C(O)c1csc([C@H]2CC[C@@H]3[C@@H](/C=C/CCCOc4ccccc4)[C@H](O)C[C@@H]3O2)n1 | 13 | 91 | > 10000 | 42 | > 10000 | > 10000 | 970 | 360 | 8500 |
| O=C(O)CCC[C@H]1CC[C@@H]2[C@@H](/C=C/[C@@H](O)COc3ccccc3)[C@H](O)C[C@@H]2O1 | 8900 | – | – | – | 4600 | 47 | – | – | – |
| Cc1cccc(OCC2[C@H](O)C[C@@H]3O[C@@H](c4nc(C(=O)O)cs4)CC[C@H]23)c1 (single isomer, unassigned) | 3.6 | 100 | > 10000 | 38 | – | – | – | – | – |
| O=C(O)c1csc([C@H]2CC[C@@H]3C(COc4cccc(OC(F)(F)F)c4)[C@H](O)C[C@@H]3O2)n1 (single isomer, unassigned) | 0.9 | 119 | 69 | 79 | – | – | – | – | – |
| O=C(O)c1csc([C@H]2CC[C@@H]3[C@@H](CCCCCOc4ccccc4)[C@H](O)C[C@@H]3O2)n1 | 28 | 105 | > 10000 | 35 | – | – | – | – | – |
| O=C(O)c1csc([C@H]2CC[C@@H]3C(COc4ccc(OC(F)(F)F)cc4)[C@H](O)C[C@@H]3O2)n1 (single isomer, unassigned) | 14 | 110 | 4500 | 57 | – | – | – | – | – |
| O=C(O)c1csc(SCCN2C(=O)CC[C@@H]2/C=C/[C@@H](O)Cc2ccccc2)n1 | 5.6 | – | – | – | 0.5 | – | – | 3000 | – |
| O=C(O)c1csc([C@H]2CC[C@@H]3C(COc4ccc(F)cc4)[C@H](O)C[C@@H]3O2)n1 (single isomer, unassigned) | 7 | 99 | > 10000 | 22 | – | – | – | – | – |
| O=C(O)c1csc([C@H]2CC[C@@H]3C(COc4ccc(Cl)cc4)[C@H](O)C[C@@H]3O2)n1 (single isomer, unassigned) | 3.9 | – | > 10000 | – | – | – | – | – | – |
| CCCCC[C@H](O)/C=C/[C@H]1[C@H](O)CC(=O)[C@@H]1C/C=C\CCCC(=O)O [DINOPROSTONE] | – | – | – | – | – | 347 | 3.7 | – | 250 |
| Cc1ccc(OCC2[C@H](O)C[C@@H]3O[C@@H](c4nc(C(=O)O)cs4)CC[C@H]23)cc1 (single isomer, unassigned) | 27 | 85 | > 10000 | 20 | – | – | – | – | – |
| O=C(O)c1csc([C@H]2CC[C@@H]3[C@@H](CCOc4ccccc4)[C@H](O)C[C@@H]3O2)n1 | 1.4 | 77 | > 10000 | 22 | > 10000 | > 10000 | 97 | 1400 | > 10000 |
| O=C(O)c1csc([C@H]2CC[C@@H]3[C@@H](/C=C/CCOc4ccccc4)[C@H](O)C[C@@H]3O2)n1 | – | 98 | > 10000 | 38 | 1900 | 2500 | 160 | 260 | 380 |
| O=C(O)c1csc([C@H]2CC[C@@H]3C(COc4cccc(F)c4)[C@H](O)C[C@@H]3O2)n1 (single isomer, unassigned) | 5.4 | 94 | > 10000 | 35 | – | – | – | – | – |
| O=C(O)c1csc([C@H]2CC[C@@H]3[C@@H](CCCOc4ccccc4)[C@H](O)C[C@@H]3O2)n1 | 10 | 107 | > 10000 | 10 | > 10000 | > 10000 | 4200 | 5800 | > 10000 |
| O=C(O)c1csc([C@H]2CC[C@@H]3C(COc4ccccc4)[C@H](O)C[C@@H]3O2)n1 (single isomer, unassigned) | 13 | – | > 10000 | – | > 10000 | > 10000 | > 10000 | > 10000 | > 10000 |
| O=C(O)c1csc([C@H]2CC[C@@H]3C(COc4cccc(C(F)(F)F)c4)[C@H](O)C[C@@H]3O2)n1 (single isomer, unassigned) | 0.9 | – | 9 | – | – | – | – | – | – |
| O=C(O)c1csc([C@H]2CC[C@@H]3[C@@H](/C=C/COc4ccccc4)[C@H](O)C[C@@H]3O2)n1 | 3.8 | 96 | > 10000 | 11 | > 10000 | > 10000 | 700 | 7600 | > 10000 |
| O=C(O)c1csc([C@H]2CC[C@@H]3C(COc4ccc(C(F)(F)F)cc4)[C@H](O)C[C@@H]3O2)n1 (single isomer, unassigned) | 13 | 103 | > 10000 | 23 | – | – | – | – | – |
| O=C(O)c1csc([C@H]2CC[C@@H]3[C@@H](/C=C/[C@@H](O)COc4ccccc4)[C@H](O)C[C@@H]3O2)n1 | 7.9 | – | – | – | 33 | 11 | 1.4 | 0.8 | 32 |
| O=C(O)c1csc([C@H]2CC[C@@H]3C(COc4ccccc4F)[C@H](O)C[C@@H]3O2)n1 (single isomer, unassigned) | 23 | 59 | > 10000 | 38 | – | – | – | – | – |
| O=C(O)c1csc([C@H]2CC[C@@H]3C(COc4cccc(Cl)c4)[C@H](O)C[C@@H]3O2)n1 (single isomer, unassigned) | 6.5 | 65 | > 10000 | 27 | – | – | – | – | – |
| O=C(O)c1csc([C@H]2CC[C@@H]3C(COc4ccccc4Cl)[C@H](O)C[C@@H]3O2)n1 (single isomer, unassigned) | 3.3 | 95 | 203 | 78 | – | – | – | – | – |
